Source: ChEMBL document CHEMBL1201862, “PubChem BioAssay data set” (2004)
The source made the active and inactive calls.

Experiments:
[1] = target: T1, Carboxy-terminal domain RNA polymerase II polypeptide A small phosphatase 1 (Homo sapiens, UniProt Q9GZU7); assay: inhibitors of CTDSP1, concentration-response testing, biochemical assay, absorbance-based, actives from ultra-high-throughput screening (AID 540297); assay type: functional
T1 sequence (Q9GZU7 whole entry): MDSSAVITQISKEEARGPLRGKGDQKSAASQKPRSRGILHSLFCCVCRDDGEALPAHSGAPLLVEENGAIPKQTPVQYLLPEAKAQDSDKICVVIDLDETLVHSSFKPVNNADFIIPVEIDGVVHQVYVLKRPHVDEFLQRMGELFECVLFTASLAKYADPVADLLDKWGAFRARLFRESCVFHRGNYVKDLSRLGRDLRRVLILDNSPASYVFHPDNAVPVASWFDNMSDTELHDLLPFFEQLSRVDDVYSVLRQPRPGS

[2] = target: T2, Probable nicotinate-nucleotide adenylyltransferase (Staphylococcus aureus (strain N315), UniProt P65502); assay type: functional, Staphylococcus aureus subsp. aureus N315;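 on IC50 Mean: confirmatory dose-response retesting of NadD inhibitor hits first found in an ultra-high-throughput screen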
[3] = target: Albumin (Bos taurus, UniProt P02769); assay: Counterscreen for inhibitors of T-cell receptor (TCR)-CD3 interaction: Fluorescence-based biochemical high throughput dose response assay to identify inhibitors of T-cell receptor (TCR)-CD3 interaction using a TAMRA-labeled BSA probe.; assay type: functional
[4] = target: T2, Probable nicotinate-nucleotide adenylyltransferase; assay type: functional, Staphylococcus aureus subsp. aureus N315; conditions: read-out: IC50_Mean
[5] = miR-122 activators in hepatoma reporter cells, dose response, cell-based, Huh7 psiCHECK-miR122, Renilla luciferase, cherry-picked (AID 651956); assay type: functional;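 further: huh7 hepatoma cells stably carrying a psiCHECK-2 miR-122 sensor plasmid; renilla luciferase signal reporting endogenous miR-122 activity after 48 h compound exposure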
[6] = HEK293T cytotoxicity, dose response, cytotoxicity control for miR-122 modulator project, cell-based, activator set, cherry-pick (AID 720690); assay type: functional;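 further: HEK293T human cells scored for general mammalian cytotoxicity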
[7] = HepG2 cell cytotoxicity, dose response, cytotoxicity control, plate reader, cherry-pick, antagonist series (AID 743416); assay type: functional, cell-based
[8] = HEK293 cell cytotoxicity, dose response, cytotoxicity control, plate reader, cherry-picked samples (AID 743446); assay type: functional, cell-based
[9] = A549 cell cytotoxicity, dose response, cytotoxicity control, plate reader, cherry-pick, antagonist series (AID 743412); assay type: functional, cell-based
[10] = LGR2 antagonists, dose response, cell-based, HEK293, CRE-luciferase reporter, cherry pick, set 2 (AID 743343); assay type: functional;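 further: transfected cells were stimulated with diluted bursicon conditioned medium after compound addition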
[11] = MC4R antagonists, dose response, counter-screen for LGR2 antagonist project, cell-based, plate reader, cherry pick (AID 743444); assay type: functional;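 further: transfected HEK 293 cells stimulated with alpha-MSH peptide; potency of inhibitors of the alpha-MSH evoked signal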
[12] = target: T3, Disintegrin and metalloproteinase domain-containing protein 17 (Homo sapiens, UniProt P78536); assay: exosite inhibitors of ADAM17, dose response, biochemical (AID 743260)
[13] = ADAM10 protease inhibitors, dose response, selectivity assay for ADAM17 exosite inhibitor project, biochemical, FRET peptide substrate, recombinant human ADAM10 (AID 743259);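 further: ADAM10 enzyme cleaving a FRET peptide substrate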
[14] = target: T4, Oxysterols receptor LXR-beta (Homo sapiens, UniProt P55055); assay: LXR agonists, Gal4 luciferase reporter, dose response, counter-screen for ssDAF-12 agonist project, cell-based, luminescence, HEK293, S. stercoralis campaign (AID 720737); assay type: functional; conditions: read-out: IC50 (the source's name)
T4 sequence (P55055 whole entry): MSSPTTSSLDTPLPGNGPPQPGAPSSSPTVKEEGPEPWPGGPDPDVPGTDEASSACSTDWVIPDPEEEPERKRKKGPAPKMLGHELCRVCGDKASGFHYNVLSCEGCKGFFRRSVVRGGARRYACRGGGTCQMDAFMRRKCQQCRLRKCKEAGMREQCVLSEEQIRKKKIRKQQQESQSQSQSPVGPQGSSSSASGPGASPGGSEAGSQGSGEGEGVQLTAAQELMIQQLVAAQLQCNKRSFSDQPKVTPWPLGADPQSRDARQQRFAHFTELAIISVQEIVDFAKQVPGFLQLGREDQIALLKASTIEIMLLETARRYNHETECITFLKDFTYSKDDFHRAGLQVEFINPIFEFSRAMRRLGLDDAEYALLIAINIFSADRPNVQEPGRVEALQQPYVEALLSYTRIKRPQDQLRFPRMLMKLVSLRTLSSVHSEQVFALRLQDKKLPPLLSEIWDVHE

[15] = Luminescence-based cell-based high throughput dose response assay to identify activators of the DAF-12 from the parasite S. stercoralis (ssDAF-12).; assay type: functional
[16] = A2780 ovarian cancer cell cytotoxicity, dose response, cytotoxicity control, plate reader, dry powder samples (AID 743046); assay type: functional, cell-based
[17] = NIH:OVCAR-3 ovarian cancer cell cytotoxicity, dose response, PAX8 inhibitor project, plate reader, dry powder samples (AID 743044); assay type: functional, cell-based
[18] = target: Paired box protein Pax-8 (Homo sapiens, UniProt Q06710); assay: inhibitors of PAX8-driven TPO luciferase reporter, dose response, RMG-I cells, cherry-pick (AID 687027); assay type: functional, cell-based;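 further: luciferase reporter driven by Pax8 target thyroperoxidase promoter measured by SteadyGlo luminescence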
[19] = system: HeLa; assay: HeLa cell cytotoxicity, dose response, cytotoxicity control, ATP luminescence, cherry-pick samples (AID 687004); assay type: functional, cell-based; conditions: Homo sapiens
[20] = ADAM10 inhibitors, peptide cleavage, dose response, biochemical, QFRET (AID 743254);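 further: ADAM10 enzyme with the DM2 quenched FRET peptide as substrate; EDANS fluorescence gain as the protease cuts the substrate; inhibitor potency against ADAM10 proteolytic activity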
[21] = target: T3, Disintegrin and metalloproteinase domain-containing protein 17; assay: ADAM17 protease inhibitors, dose response, counter-screen for ADAM10 exosite inhibitor project, biochemical, quenched FRET substrate (AID 743253)
[22] = T. cruzi growth inhibition in host cells, dose response, cell-based, plate reader, dry powder, set 2 (AID 652275); assay type: functional
[23] = target: Endoplasmic reticulum aminopeptidase 1 (Homo sapiens, UniProt Q9NZ08); assay: ERAP1 aminopeptidase inhibitors, dose response, biochemical, cherry-pick, set 2, plate reader (AID 743314)
[24] = inhibitors of Vif binding to APOBEC3G peptide, primary screen, biochemical, TR-FRET, GST-Vif 1-94, biotin-A3G peptide, dose response retest (AID 1117319); assay type: functional;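 further: TR-FRET signal of purified GST-Vif binding a biotinylated A3G peptide; inhibitors lower the FRET signal by blocking Vif and A3G binding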
[25] = HepG2 cell cytotoxicity, dose response, cytotoxicity control, cherry-picked samples (AID 1159577); assay type: functional, cell-based
[26] = P. falciparum Dd2 growth inhibitors, dose response, SYBR Green, cherry-picked samples (AID 1159567); assay type: functional, cell-based
[27] = target: RNA-editing ligase 1, mitochondrial (Trypanosoma brucei brucei, UniProt P86926); assay: TbREL1 ligase inhibitors, dose response, biochemical, fluorescence, Trypanosoma brucei (AID 1117295); assay type: functional
[28] = Concentration-dependent survival of SW480 colon cancer line, luminescence detection with CellTiter-Glo, half-maximal inhibitory concentration (AID 1117338); assay type: functional
[29] = CellTiter-Glo luminescent dose response of DLD-1 viability loss (AID 1117352); assay type: functional
[30] = HCT116 cell viability decrease, GSK3B pretreatment – CellTiter-Glo, IC50, dose response (AID 1117339); assay type: functional; conditions: HCT-116
[31] = cytotoxicity toward Colo320 cells – cell-based, CellTiter-Glo luminescence, IC50, dose response (AID 1117334); assay type: functional; conditions: COLO 320
[32] = cytotoxicity toward HT-29 cells – cell-based, CellTiter-Glo luminescence, IC50, dose response (AID 1117330); assay type: functional
[33] = cytotoxicity toward HCT116 cells – cell-based, CellTiter-Glo luminescence, IC50, dose response (AID 1117332); assay type: functional; conditions: HCT-116
[34] = RKO cell viability reduction, dose response, CellTiter-Glo luminescence (AID 1117322); assay type: functional
[35] = SNU-C1 cell viability reduction, dose response, CellTiter-Glo luminescence (AID 1117323); assay type: functional, cell-based

T2 sequence (P65502 whole entry): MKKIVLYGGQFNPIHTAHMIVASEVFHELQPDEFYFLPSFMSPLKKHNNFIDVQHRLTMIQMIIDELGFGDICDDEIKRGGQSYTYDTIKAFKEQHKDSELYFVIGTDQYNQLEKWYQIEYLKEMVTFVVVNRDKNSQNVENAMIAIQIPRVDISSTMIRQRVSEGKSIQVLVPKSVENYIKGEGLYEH
T3 sequence (P78536 whole entry, the tested form may be a part): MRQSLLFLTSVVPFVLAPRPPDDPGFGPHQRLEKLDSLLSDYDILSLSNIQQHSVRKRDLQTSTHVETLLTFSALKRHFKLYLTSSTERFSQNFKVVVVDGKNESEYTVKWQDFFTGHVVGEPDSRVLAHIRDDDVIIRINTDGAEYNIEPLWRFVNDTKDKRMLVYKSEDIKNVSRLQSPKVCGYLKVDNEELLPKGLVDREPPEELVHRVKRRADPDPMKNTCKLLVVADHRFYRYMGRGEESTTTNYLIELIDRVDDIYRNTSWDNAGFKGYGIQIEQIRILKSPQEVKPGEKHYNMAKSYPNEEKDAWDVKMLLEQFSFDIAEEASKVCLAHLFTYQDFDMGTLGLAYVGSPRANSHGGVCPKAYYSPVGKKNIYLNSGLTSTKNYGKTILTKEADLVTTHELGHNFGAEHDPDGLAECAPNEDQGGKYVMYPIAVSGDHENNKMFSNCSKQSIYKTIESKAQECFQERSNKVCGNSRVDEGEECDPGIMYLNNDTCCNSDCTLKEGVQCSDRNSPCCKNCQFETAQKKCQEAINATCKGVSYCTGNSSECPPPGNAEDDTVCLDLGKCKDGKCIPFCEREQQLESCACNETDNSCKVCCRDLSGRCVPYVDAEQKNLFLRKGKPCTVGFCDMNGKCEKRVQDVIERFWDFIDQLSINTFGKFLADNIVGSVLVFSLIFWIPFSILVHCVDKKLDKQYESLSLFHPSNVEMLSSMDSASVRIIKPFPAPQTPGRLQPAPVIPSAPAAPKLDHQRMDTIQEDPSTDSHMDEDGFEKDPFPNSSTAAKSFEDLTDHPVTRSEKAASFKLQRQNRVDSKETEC
Endoplasmic reticulum aminopeptidase 1, sequence (Q9NZ08 whole entry): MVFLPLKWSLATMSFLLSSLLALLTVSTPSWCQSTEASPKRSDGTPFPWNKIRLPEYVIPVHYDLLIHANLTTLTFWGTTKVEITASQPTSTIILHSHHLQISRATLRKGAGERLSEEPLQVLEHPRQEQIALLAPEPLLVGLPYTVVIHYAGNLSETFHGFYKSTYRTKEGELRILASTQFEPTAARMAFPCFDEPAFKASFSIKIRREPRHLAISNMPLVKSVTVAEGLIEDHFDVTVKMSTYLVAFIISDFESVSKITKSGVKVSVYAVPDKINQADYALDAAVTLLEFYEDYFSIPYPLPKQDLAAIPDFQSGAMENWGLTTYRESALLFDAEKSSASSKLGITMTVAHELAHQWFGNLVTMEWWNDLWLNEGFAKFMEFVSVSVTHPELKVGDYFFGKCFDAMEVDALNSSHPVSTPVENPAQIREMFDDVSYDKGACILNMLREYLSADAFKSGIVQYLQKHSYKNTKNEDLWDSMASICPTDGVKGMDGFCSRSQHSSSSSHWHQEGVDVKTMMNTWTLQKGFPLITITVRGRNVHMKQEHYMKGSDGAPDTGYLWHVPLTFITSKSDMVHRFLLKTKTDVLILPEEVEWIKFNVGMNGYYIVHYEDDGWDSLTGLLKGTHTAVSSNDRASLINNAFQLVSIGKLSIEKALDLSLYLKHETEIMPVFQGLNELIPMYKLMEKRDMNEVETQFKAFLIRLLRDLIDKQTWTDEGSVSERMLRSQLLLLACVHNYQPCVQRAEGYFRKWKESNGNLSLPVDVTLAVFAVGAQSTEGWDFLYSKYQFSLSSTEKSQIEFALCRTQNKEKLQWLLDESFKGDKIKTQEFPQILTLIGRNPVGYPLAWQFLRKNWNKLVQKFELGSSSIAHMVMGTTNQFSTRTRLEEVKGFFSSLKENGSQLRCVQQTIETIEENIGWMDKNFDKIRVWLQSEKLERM
Paired box protein Pax-8, sequence (Q06710 whole entry): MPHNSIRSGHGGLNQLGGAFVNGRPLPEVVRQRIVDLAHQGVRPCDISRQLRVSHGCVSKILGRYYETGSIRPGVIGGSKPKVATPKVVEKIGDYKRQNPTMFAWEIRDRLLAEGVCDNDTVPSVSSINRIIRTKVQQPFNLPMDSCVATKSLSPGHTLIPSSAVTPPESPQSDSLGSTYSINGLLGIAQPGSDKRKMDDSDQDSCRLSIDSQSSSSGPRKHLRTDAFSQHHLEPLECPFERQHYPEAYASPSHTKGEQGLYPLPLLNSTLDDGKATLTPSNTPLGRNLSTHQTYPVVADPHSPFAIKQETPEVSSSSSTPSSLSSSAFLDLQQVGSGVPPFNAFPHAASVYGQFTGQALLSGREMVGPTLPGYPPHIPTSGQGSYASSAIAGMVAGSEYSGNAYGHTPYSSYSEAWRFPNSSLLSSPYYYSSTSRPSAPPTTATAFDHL
RNA-editing ligase 1, mitochondrial, sequence (P86926 whole entry): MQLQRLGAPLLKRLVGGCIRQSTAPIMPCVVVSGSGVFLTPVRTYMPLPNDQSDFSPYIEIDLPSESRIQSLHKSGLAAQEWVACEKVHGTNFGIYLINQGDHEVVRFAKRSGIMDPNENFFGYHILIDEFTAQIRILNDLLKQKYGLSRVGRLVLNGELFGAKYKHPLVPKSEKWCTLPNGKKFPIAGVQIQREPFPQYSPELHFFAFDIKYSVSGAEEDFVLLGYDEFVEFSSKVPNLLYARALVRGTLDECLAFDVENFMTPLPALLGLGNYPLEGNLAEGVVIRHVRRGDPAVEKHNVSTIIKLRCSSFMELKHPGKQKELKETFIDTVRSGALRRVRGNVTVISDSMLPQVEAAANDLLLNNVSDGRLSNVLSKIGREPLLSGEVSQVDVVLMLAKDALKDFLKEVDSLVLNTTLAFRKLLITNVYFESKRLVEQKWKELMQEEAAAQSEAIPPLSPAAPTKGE
Albumin, sequence (P02769 whole entry): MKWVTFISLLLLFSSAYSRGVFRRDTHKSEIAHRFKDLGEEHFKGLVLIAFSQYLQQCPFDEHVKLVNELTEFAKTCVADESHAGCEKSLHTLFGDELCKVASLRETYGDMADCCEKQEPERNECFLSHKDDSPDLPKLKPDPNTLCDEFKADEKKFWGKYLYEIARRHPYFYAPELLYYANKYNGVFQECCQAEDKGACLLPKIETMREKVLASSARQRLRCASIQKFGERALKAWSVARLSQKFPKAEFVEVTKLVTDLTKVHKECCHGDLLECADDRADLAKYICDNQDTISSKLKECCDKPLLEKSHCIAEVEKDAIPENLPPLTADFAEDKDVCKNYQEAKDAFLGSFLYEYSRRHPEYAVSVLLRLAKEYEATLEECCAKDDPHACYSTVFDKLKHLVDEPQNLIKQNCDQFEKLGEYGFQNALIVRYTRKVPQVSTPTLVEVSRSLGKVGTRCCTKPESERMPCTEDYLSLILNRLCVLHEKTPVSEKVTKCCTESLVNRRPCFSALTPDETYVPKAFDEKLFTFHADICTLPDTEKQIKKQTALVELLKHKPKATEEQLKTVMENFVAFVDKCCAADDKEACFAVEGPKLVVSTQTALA

For `CN(CCC#N)C(=O)COC(=O)c1c2c(nc3ccccc13)/C(=C\c1ccco1)CC2`, the IC50 [1] was 3.2 µM (active), the IC50 [2] was 9.77 µM (active) and the IC50 [3] was > 94.1 µM (inactive). The IC50 [4] was 18 µM (active).
With `C[C@H](CO)N1C[C@H](C)[C@H](CN(C)C(=O)Nc2cccc3ccccc23)Oc2ncc(C#Cc3ccc(C(F)(F)F)cc3)cc2C1=O` the AC50 [5] was 13.9 µM (active), the AC50 [6] was 25.9 µM (active) and the AC50 [7] was 23.1 µM (active). The AC50 [8] was 41.4 µM (active), the AC50 [9] was 21.3 µM (active) and the AC50 [10] was 41.1 µM (active). For the same compound, the AC50 [11] was 21.7 µM (active).
For `N#Cc1cccc(NC(=O)c2cc(C3CCCCN3S(=O)(=O)c3ccccc3)on2)c1` (stereo unspecified), the IC50 [12] was > 69.5 µM (inactive) and the IC50 [13] was > 69.5 µM (inactive).
In the case of `CNc1cncc(-c2ccc(OC)c(OC)c2)n1`, the EC50 [14] is reported as > 67.6 µM (inactive) and the IC50 [15] is reported as > 67.6 µM (inactive).
In the case of `Cc1ccc(S(=O)(=O)Nc2ccc3c(c2)C(=O)N([C@H](C)CO)C[C@@H](C)[C@@H](CN(C)Cc2ccc4c(c2)OCO4)OCCCC[C@@H](C)O3)cc1`, the AC50 [16] is reported as < 0.26 µM (active), the AC50 [17] is reported as 29.1 µM (active) and the AC50 [18] is reported as 21 µM (active).
In the case of `CN1C(=O)c2cc(NC(=O)Nc3ccc(Cl)cc3)ccc2OC[C@H]2O[C@@H](CC(=O)NCCN3CCCCC3)CC[C@@H]21`, the AC50 [19] is reported as 22.7 µM (active).
With `C[C@H]1CN([C@@H](C)CO)C(=O)c2cc(NC(=O)Nc3ccc(F)cc3)ccc2O[C@@H]1CN(C)S(C)(=O)=O` the AC50 [19] was 1.16 µM (active).
For `O=C(CSc1nnc(Cc2cccs2)n1-c1ccc(Cl)cc1)Nc1ccc(OCc2ccccc2)cc1`, the IC50 [20] was > 69.5 µM (inactive) and the IC50 [21] was > 69.5 µM (inactive).
With `CC(C)(C)[S@+]([O-])N1Cc2cc(C(=O)NCc3ccc4c(c3)OCO4)nc(-c3cccc(-c4cccnc4)c3)c2[C@@H]1CCO` the AC50 [22] was 1.14 µM (active).
For `O=C(NCC1CC1)[C@H]1[C@H](CO)[C@H]2Cn3c(ccc(/C=C/c4ccccc4)c3=O)[C@@H]1N2C(=O)C1CC1`, the AC50 [23] was 7.13 µM (active).
With `CCN(CC)CCN/C=C1\C(=O)CNC1=O` the IC50 [24] was > 100 µM (active).
For `COc1ccc(C#Cc2ccc([C@@H]3[C@H](CO)N4CCCCN(C(=O)Cc5ccccc5)C[C@@H]34)cc2)cc1`, the AC50 [25] was 7.73 µM (active) and the AC50 [26] was 1.42 µM (active).
For `COCCCNC(=O)C1CCN(S(=O)(=O)c2ccc3[nH]c(=O)oc3c2)CC1`, the IC50 [27] was 42.4 µM (inactive).
In the case of `CC(C)=CCCC(C)=CCCC(C)=CCCC=C(C)CCC=C(C)CCC=C(C)C`, the IC50 [28] is reported as > 20 µM (inactive), the IC50 [29] is reported as > 20 µM (inactive) and the IC50 [30] is reported as > 20 µM (inactive). For the same compound, the IC50 [31] was > 20 µM (inactive), the IC50 [32] was > 20 µM (inactive) and the IC50 [33] was > 20 µM (inactive). The IC50 [34] was > 20 µM (inactive) and the IC50 [35] was > 20 µM (inactive).
